Assay results taken from US5578620A, “Thiazolidine and oxazolidine derivatives, their preparation and their medical use” (Sankyo Company, Limited, priority 1994, dated 1996).

What was measured:
[1] = Toxicity, oral administration for 2 weeks; type: in vivo, male F344 rats; conditions: 50 mg/kg
Method: The toxicity of the compounds of the present invention was tested on male F344 rats, divided into groups of 5. The test compound was adminstered orally to each test animal at a dose of 50 mg/kg of body weight for 2 weeks. The test compounds used were those of Examples 20, 45 (polar, less polar) and 47 (polar).

[2] = test system: blood glucose level (BGL); assay: Hypoglycemic activity (blood glucose lowering rate) in hyperglycemic KK mice; type: in vivo, male mice of the KK strain; conditions: Mus musculus, oral, 18 hours
Method: The test animals used were hyperglycemic male mice of the KK strain, each having a body weight more than 40 g. Each animal was orally administered a test compound in the amount shown in the following Table 8 and then allowed to feed freely for 18 hours. At the end of this time, blood was collected from the tail veins without anesthesia. The blood glucose level (BGL) was determined by means of a glucose analyzer (GL-101, manufactured by Mitsubishi Kasei Co. or Glucoroder manufactured by Shino Test Co.).
The blood glucose lowering rate was calculated by the following equation:
Blood glucose lowering rate (%)=
BGLs is the BGL in the group administered a solvent only, but no active compound; and
BGLt is the BGL in the group administered a test compound.
The results are shown in the following Table 8, in which each compound of the present invention is identified by the number of one of the following Examples in which its preparation is illustrated.

[3] = molecular target: T1, Bovine lens aldose reductase (Bos taurus, UniProt P16116); assay: Inhibition of Aldose reductase; type: biochemical
T1 construct: Bovine lens aldose reductase was separated and partially purified; from tissue; host or cells: bovine lens
Method: Bovine lens aldose reductase was separated and partially purified by the method of S. Hyman and J. H. Kinoshita [J. Biol. Chem., 240, 877 (1965)] and K. Inagaki, I. Miwa and J. Okuda [Arch. Biochem. Biophys., 316, 337 (1982)], and its activity was determined photometrically by the method of Varma et al. [Biochem. Pharmac., 25, 2505 (1976)]. […]

Which mortality rate ([1]; male F344 rats, oral, 2 weeks) does the source give for `CC(COc1ccc(CC2SC(=O)NC2=O)cc1)NCC(O)COCCCCCCc1ccccc1` (centres unmarked) [Example 20, 5-{4-[2-(3-6'-Phenylhexyloxy-2-hydroxypropylamino)propoxy]benzyl}thiazolidine-2,4-dione] here?
Its mortality rate is “zero”.

And the “abnormalities observed during 2 successive weeks” value ([1]; rat, in vivo, po)?
The value was “no abnormalities which could be attributed to the test coumpounds”.

And the inhibition in vivo at 1 mg/kg [2]?
The inhibition in vivo at 1 mg/kg was 37.9%.

And the IC50 [3]?
Its IC50 is 3.5 µM.

And the inhibition at 5 µg/mL ([3]; read-out: Inhibition at 5 μg/ml)?
The inhibition at 5 µg/mL was 69.1%.
